Measurements as given in patent US20200291018A1, “TAM KINASE INHIBITORS” (SYROS PHARMACEUTICALS, INC., priority 2017, published 2020).

Experiments:
MERTK = molecular target: T1, MERTK (Homo sapiens, UniProt Q12866); assay: TR-FRET kinase activity assay, MERTK; type: biochemical; conditions: for IC50: TR-FRET activity assay, ATP at Km, 60 minutes, read-out: Mer IC50; for Mer/Flt3 ratio (FLT3 IC50/Mer IC50): ratio calculated as FLT3 IC50/Mer IC50
T1 sequence (Q12866 21-999): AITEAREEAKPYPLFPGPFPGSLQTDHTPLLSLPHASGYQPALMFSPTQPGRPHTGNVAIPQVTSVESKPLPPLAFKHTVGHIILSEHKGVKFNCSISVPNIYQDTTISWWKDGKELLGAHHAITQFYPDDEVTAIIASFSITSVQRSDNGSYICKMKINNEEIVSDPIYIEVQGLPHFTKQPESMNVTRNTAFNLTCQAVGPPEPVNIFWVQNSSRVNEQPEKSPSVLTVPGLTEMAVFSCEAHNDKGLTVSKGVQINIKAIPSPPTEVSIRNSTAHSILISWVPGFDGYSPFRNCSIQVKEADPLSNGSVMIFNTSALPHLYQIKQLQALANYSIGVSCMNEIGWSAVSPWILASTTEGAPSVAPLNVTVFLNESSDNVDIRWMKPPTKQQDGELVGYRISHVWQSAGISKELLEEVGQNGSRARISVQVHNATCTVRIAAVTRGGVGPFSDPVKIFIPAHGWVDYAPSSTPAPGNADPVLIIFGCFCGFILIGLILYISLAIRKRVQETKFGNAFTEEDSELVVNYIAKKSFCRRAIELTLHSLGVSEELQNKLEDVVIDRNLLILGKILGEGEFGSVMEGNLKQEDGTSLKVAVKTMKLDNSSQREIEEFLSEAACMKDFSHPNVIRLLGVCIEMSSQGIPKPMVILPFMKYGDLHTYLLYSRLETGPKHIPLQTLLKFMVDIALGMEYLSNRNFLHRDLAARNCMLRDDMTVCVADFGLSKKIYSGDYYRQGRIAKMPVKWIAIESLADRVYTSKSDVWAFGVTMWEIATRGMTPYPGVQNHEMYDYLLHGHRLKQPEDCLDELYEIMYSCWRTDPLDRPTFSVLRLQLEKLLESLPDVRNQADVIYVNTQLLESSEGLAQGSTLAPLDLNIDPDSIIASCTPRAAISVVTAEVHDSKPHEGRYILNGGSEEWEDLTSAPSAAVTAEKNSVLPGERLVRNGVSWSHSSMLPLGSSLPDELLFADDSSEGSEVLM
How it was run: (§1)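 Each kinase phosphorylates a fluorescently labeled peptide on tyrosine in the presence of compound, with ATP at its Km, for 60 min at RT in HEPES pH 7.5 buffer with MgCl2, EGTA, Brij 35 and DTT. Product is detected by TR-FRET with a Europium-labeled phospho-specific antibody; IC50 values follow.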

TYRO3 = molecular target: T2, TYRO3 (Homo sapiens, UniProt Q06418); assay: TR-FRET kinase activity assay, TYRO3; type: biochemical; conditions: ATP at Km, 60 minutes
T2 sequence (Q06418 41-890): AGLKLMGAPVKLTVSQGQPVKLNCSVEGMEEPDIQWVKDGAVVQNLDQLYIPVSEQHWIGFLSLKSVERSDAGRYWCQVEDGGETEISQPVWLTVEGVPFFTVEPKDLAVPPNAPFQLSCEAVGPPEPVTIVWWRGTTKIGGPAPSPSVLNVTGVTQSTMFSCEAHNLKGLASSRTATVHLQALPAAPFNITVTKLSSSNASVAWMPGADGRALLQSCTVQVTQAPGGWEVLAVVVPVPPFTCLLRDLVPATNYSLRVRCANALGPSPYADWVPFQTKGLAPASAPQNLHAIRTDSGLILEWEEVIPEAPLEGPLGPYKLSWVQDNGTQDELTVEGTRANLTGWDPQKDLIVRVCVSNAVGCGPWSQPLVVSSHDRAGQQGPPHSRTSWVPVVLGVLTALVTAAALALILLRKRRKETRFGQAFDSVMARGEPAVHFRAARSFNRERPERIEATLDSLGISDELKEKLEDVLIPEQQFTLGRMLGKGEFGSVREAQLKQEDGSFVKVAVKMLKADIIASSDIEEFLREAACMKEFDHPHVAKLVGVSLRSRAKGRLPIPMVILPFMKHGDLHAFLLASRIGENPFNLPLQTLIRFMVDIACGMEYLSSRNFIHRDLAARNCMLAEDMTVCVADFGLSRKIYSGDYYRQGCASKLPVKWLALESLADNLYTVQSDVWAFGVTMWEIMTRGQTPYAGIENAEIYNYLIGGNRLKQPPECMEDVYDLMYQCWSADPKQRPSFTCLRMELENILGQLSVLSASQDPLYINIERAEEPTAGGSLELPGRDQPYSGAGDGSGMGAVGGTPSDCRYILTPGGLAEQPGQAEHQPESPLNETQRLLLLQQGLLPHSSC
How it was run: as §1

Compound	IC50 (MERTK) [nM]	Mer/Flt3 ratio (FLT3 IC50/Mer IC50) (MERTK)	IC50 (TYRO3) [nM]
CCCC(C)Nc1ncc2c(=O)n(C3CCNCC3)cc([C@H]3CC[C@H](O)CC3)c2n1 (stereo partly drawn) [Compound 112]	≤ 100	+++ (a ratio of >100)	≤ 100
CCCCNc1cc2c(cn1)c(=O)n(C1CCN(C)CC1)cc2[C@H]1CC[C@H](O)CC1 [Compound 116]	≤ 100	+ (a ratio of >2.0 and <10)	≤ 100
CCCC(C)Nc1ncc2c(=O)n(C3CCN(C)CC3)cc([C@H]3CC[C@H](O)CC3)c2n1 (stereo partly drawn) [Compound 117]	≤ 100	+++ (a ratio of >100)	≤ 100
CC(C)CC(C)Nc1ncc2c(=O)n(C3CCNCC3)cc([C@H]3CC[C@H](O)CC3)c2n1 (stereo partly drawn) [Compound 119]	≤ 100	+++ (a ratio of >100)	≤ 100
CS(=O)(=O)N1CC[C@H](Nc2ncc3c(OC4CCOCC4)ncc([C@H]4CC[C@H](O)CC4)c3n2)C1 [Compound 278]	100 to 1000	++ (a ratio of between 10 and 100)	100 to 1000
COC[C@H](C)Nc1ncc2c(OC3CCOCC3)ncc(-c3ccc(N4CCN(C)CC4)cc3)c2n1 [Compound 279]	100 to 1000	++ (a ratio of between 10 and 100)	100 to 1000
COC[C@H](C)Nc1ncc2c(OC3CCOCC3)ncc(-c3ccc(C4CCN(C)CC4)cc3)c2n1 [Compound 280]	≤ 100	++ (a ratio of between 10 and 100)	≤ 100
CCOC[C@H](C)Nc1ncc2c(OC3CCOCC3)ncc([C@H]3CC[C@H](O)CC3)c2n1 [Compound 281]	≤ 100	+++ (a ratio of >100)	100 to 1000
CN1CC(Nc2ncc3c(OC4CCOCC4)ncc([C@H]4CC[C@H](O)CC4)c3n2)CC1=O (stereo partly drawn) [Compound 282]	1000 to 10000	++ (a ratio of between 10 and 100)	100 to 1000
O=C(O)c1ccc(Nc2ncc3c(OC4CCNCC4)ncc([C@H]4CC[C@H](O)CC4)c3n2)cc1 [Compound 283]	≤ 100	+++ (a ratio of >100)	≤ 100
C[C@@H](CCO)Nc1ncc2c(OC3CCOCC3)ncc([C@H]3CC[C@H](O)CC3)c2n1 [Compound 284]	≤ 100	+++ (a ratio of >100)	100 to 1000
COC[C@H](C)Nc1cc2c(cn1)c(OC1CCOCC1)ncc2[C@H]1CC[C@H](O)CC1 [Compound 285]	≤ 100	+++ (a ratio of >100)	100 to 1000
O[C@H]1CC[C@H](c2cnc(OC3CCOCC3)c3cnc(NCCC(F)(F)F)nc32)CC1 [Compound 286]	≤ 100	+ (a ratio of >2.0 and <10)	100 to 1000
CC[C@H](C)Nc1ncc2c(O[C@H]3CC[C@](C)(O)CC3)ncc([C@H]3CC[C@H](O)CC3)c2n1 [Compound 287]	≤ 100	++ (a ratio of between 10 and 100)	100 to 1000
CC(C)Nc1ncc2c(OC3CCOCC3)ncc(-c3cccc(S(=O)(=O)N(C)C)c3)c2n1 [Compound 288]	≤ 100	+++ (a ratio of >100)	≤ 100
COC[C@H](C)Nc1ncc2c(OC3CCN(S(C)(=O)=O)CC3)ncc([C@H]3CC[C@H](O)CC3)c2n1 [Compound 289]	≤ 100	+++ (a ratio of >100)	100 to 1000

Compound	IC50 (MERTK) [nM]	Mer/Flt3 ratio (FLT3 IC50/Mer IC50) (MERTK)	IC50 (TYRO3) [nM]
CC[C@H](C)Nc1ncc2c(=O)n([C@H]3CC[C@H](N)CC3)cc([C@H]3CC[C@H](O)CC3)c2n1 [Compound 290]	≤ 100	+++ (a ratio of >100)	≤ 100
CC1(Nc2ncc3c(OC4CCNCC4)ncc([C@H]4CC[C@H](O)CC4)c3n2)CC1 [Compound 291]	≤ 100	+++ (a ratio of >100)	≤ 100
C[C@@H](CC#N)Nc1ncc2c(OC3CCOCC3)ncc([C@H]3CC[C@H](O)CC3)c2n1 [Compound 292]	≤ 100	+++ (a ratio of >100)	100 to 1000
COC[C@H](C)Nc1ncc2c(OC3CCOCC3)ncc([C@H]3CC[C@](C)(O)CC3)c2n1 [Compound 293]	≤ 100	+++ (a ratio of >100)	≤ 100
COC[C@H](C)Nc1ncc2c(OC3CCOCC3)ncc([C@H]3CC[C@@](C)(O)CC3)c2n1 [Compound 294]	≤ 100	+++ (a ratio of >100)	100 to 1000
COC[C@H](C)Nc1ncc2c(O[C@H]3C[C@H](O)C3)ncc([C@H]3CC[C@H](O)CC3)c2n1 [Compound 295]	≤ 100	+++ (a ratio of >100)	≤ 100
COC[C@H](C)Nc1ncc2c(O[C@H]3C[C@@H](O)C3)ncc([C@H]3CC[C@H](O)CC3)c2n1 [Compound 296]	≤ 100	+++ (a ratio of >100)	≤ 100
CNC(=O)Nc1ccc(-c2cnc(OC3CCOCC3)c3cnc(N[C@@H](C)COC)nc23)cc1 [Compound 297]	100 to 1000	++ (a ratio of between 10 and 100)	100 to 1000
CC[C@H](C)Nc1ncc2c(O[C@H]3CC[C@@H](N(C)C)C3)ncc([C@H]3CC[C@H](O)CC3)c2n1 [Compound 298]	≤ 100	+++ (a ratio of >100)	≤ 100
O[C@H]1CC[C@H](c2cnc(OC3CCNCC3)c3cnc(Nc4ccc(Cl)c(Cl)c4)nc32)CC1 [Compound 299]	≤ 100	++ (a ratio of between 10 and 100)	≤ 100
CCc1cc(Nc2ncc3c(OC4CCNCC4)ncc([C@H]4CC[C@H](O)CC4)c3n2)ccc1Cl [Compound 300]	≤ 100	++ (a ratio of between 10 and 100)	≤ 100
COC[C@H](C)Nc1ncc2c(OC3CCOCC3)ncc(-c3ccc(O)cc3)c2n1 [Compound 301]	≤ 100	+++ (a ratio of >100)	100 to 1000
COC[C@H](C)Nc1ncc2c(O[C@H]3CCNCC3(F)F)ncc([C@H]3CC[C@H](O)CC3)c2n1 [Compound 302]	100 to 1000	++ (a ratio of between 10 and 100)	100 to 1000
COC[C@H](C)Nc1ncc2c(C)ncc([C@H]3CC[C@H](O)CC3)c2n1 [Compound 303]	≤ 100	+++ (a ratio of >100)	≤ 100
C[C@@H](CF)Nc1ncc2c(OC3CCOCC3)ncc([C@H]3CC[C@H](O)CC3)c2n1 [Compound 304]	≤ 100	+++ (a ratio of >100)	100 to 1000
